According to US20040009495A1, “Methods and products related to drug screening using gene expression patterns” (Whitehead Institute for Biomedical Research, priority 2001, published 2004):

Key:
HL60 cells [1] = experiment: Marker gene expression ratios to GAPDH in HL60 control cells (multiplex RT-PCR, direct gene dendrimer readout); format: cell-based; conditions: for Ave IL1RN/GAPDH / Ave SPP1/GAPDH / IL1RN fold increase over AML / SPP1 fold increase over AML: HL60 cells; for Ave IL1RN/GAPDH / Ave SPP1/GAPDH: highest stringency filter of 50% dilution, 1 uM ATRA or 10 nM PMA; for IL1RN fold increase over AML / SPP1 fold increase over AML: versus undifferentiated HL60 (AML)
HL60 cells [2] = experiment: HL60 cell differentiation on exposure to inducing chemical; format: cell-based
Method: HL60 cells, provided by American Type Cell Culture (Manassas, Va.), were grown in RPMI medium 1640 with 10% fetal bovine serum (Sigma, St. Louis, Mo.) and 1% penicillin-streptomycin. For design of the model, neutrophil differentiation was stimulated with 1 uM ATRA (Sigma, St. Louis, Mo.) for 0, 24, 48, 72, and 120 hours and with 1.25% dimethyl sulfoxide (DMSO) (American Bioanalytical, Natick, Mass.) for 72 hours. Monocyte/macrophage differentiation was induced with 10 nM phorbol 12-myristate 13-acetate (PMA) (Sigma, St. Louis, Mo.) for 0, 4, 12, and 24, and 120 hours and with Vitamin D3 (1 alpha 25-dihydroxy) (Calbiochem, San Diego, Calif.) 2.5 uM for 72 hours. Differentiation was confirmed by morphological changes by light microscopy for monocyte/macrophage differentiation and by May Grunwald Giemsa stain for neutrophil differentiation.
Acute Myeloid Leukemia (AML) represents a form of cancer for which improved treatment in therapy is greatly sought. For more than 20 years, researchers have used a cell line (HL60 cell line) which closely mimics the behavior of AML and which is easily maintained in cell culture. […] The different gene expression signatures were evaluated for “in vivo authenticity” by confirming the same gene expression differences in native human neutrophils and native human monocytes compared to patient AML cells. […]

[3] = treated HL60 cells, text summary over 3 plex and 5 plex

SMILES | Ave IL1RN/GAPDH (HL60 cells [1]; 3 plex) | Ave SPP1/GAPDH (HL60 cells [1]; 3 plex) | Ave IL1RN/GAPDH (HL60 cells [1]; 5 plex) | Ave SPP1/GAPDH (HL60 cells [1]; 5 plex) | differentiation of HL60 cells upon exposure (HL60 cells [2]) | IL1RN fold increase over AML (HL60 cells [1]; 3 plex) [fold] | SPP1 fold increase over AML (HL60 cells [1]; 3 plex) [fold] | IL1RN fold increase over AML (HL60 cells [1]; 5 plex) [fold] | SPP1 fold increase over AML (HL60 cells [1]; 5 plex) [fold] | IL1RN increase with respect to AML (HL60 cells [1]; [3]) | SSP1 increase over AML (HL60 cells [1]; [3])
CC1=C(/C=C/C(C)=C/C=C/C(C)=C/C(=O)O)C(C)(C)CCC1 [ATRA, all trans retinoic acid] | 0.02 | 0.03 | 0.02 | 0.02 | differentiated into neutrophils | – | – | – | – | – | –
CCCCCCCCCCCCCC(=O)O[C@@H]1[C@@H](C)[C@@]2(O)[C@@H](C=C(CO)C[C@]3(O)C(=O)C(C)=C[C@@H]23)[C@@H]2C(C)(C)[C@]12OC(C)=O [PMA, Phorbol 12-myristate 13-acetate] | 2.04 | 1.17 | 0.98 | 0.55 | differentiated into monocyte/macrophage | 84.4 | 55.1 | 40.5 | 25.9 | 40-84 fold | 25-55 fold
